Measured values published in US10624949B1, “Methods for treating diseases related to the wnt pathway” (priority 2015, dated 2020).
Entries after “also recorded” stand apart in the source; their conditions may differ.

B1: Wnt3A (protein, UniProt P56704 19-352, looked up)
Protein Wnt-3a: SYPIWWSLAVGPQYSSLGSQPILCASIPGLVPKQLRFCRNYVEIMPSVAEGIKIGIQECQHQFRGRRWNCTTVHDSLAIFGPVLDKATRESAFVHAIASAGVAFAVTRSCAEGTAAICGCSSRHQGSPGKGWKWGGCSEDIEFGGMVSREFADARENRPDARSAMNRHNNEAGRQAIASHMHLKCKCHGLSGSCEVKTCWWSQPDFRAIGDFLKDKYDSASEMVVEKHRESRGWVETLRPRYTYFKVPTERDLVYYEASPNFCEPNPETGSFGTRDRTCNVSSHGIDGCDLLCCGRGHNARAERRREKCRCVFHWCCYVSCQECTRVYDVHTCK
B2: DKK-1 (protein, UniProt O94907 32-266, looked up)
Dickkopf-related protein 1: TLNSVLNSNAIKNLPPPLGGAAGHPGSAVSAAPGILYPGGNKYQTIDNYQPYPCAEDEECGTDEYCASPTRGGDAGVQICLACRKRRKRCMRHAMCCPGNYCKNGICVSSDQNHFRGEIEETITESFGNDHSTLDGYSRRTTLSSKMYHTKGQEGSVCLRSSDCASGLCCARHFWSKICKPVLKEGQVCTKHRRKGSHGLEIFQRCYCGEGLSCRIQKDHHQASNSSRLHTCQRH

How the values were obtained:
[1] = test system: cellular models of cancer survival; settings: preclinical studies; cited from earlier work
[2] = test system: RVFV MP12-induced β-catenin transcriptional activity; format: cell-based, human
[3] = test system: Wnt3A-induced β-catenin luc reporter expression; format: cell-based, human
RVFV MP12 = format: cell-based, Rift Valley fever virus
RVFV MP12-GFP [4] = format: cell-based, Rift Valley fever virus
wild-type RVFV = format: cell-based, Rift Valley fever virus
VSV [5] = format: cell-based, Vesicular Stomatitis virus
RVFV MP12-GFP [6] = test: microbe, parasite or virus in culture; format: cell-based, Rift Valley fever virus; settings: for inhibition at 10 µM: Rift Valley fever virus, Hepatocyte, read-out: inhibition of RVFV MP12-GFP infection
VacV = format: cell-based, Vaccinia virus
LCV = format: cell-based, La Crosse virus
CEV = format: cell-based, California encephalitis virus
VSV [7] = format: cell-based, Vesicular Stomatitis virus; remark: listed apart in the source
RVFV MP12-GFP [8] = format: cell-based, Rift Valley fever virus; remark: listed apart in the source
[9] = test system: wild-type RVFV strain ZH-501; format: cell-based, Rift Valley fever virus

Molecule | RVFV MP12-induced β-catenin reporter activity [2] | Wnt3A-induced β-catenin luc reporter activity [3] | RVFV MP12-GFP infection, inhibitor 1 hour prior to and during initial infection, removed after 3 hours (pre-treat) (RVFV MP12-GFP [4]) | RVFV MP12-GFP infection, inhibitor added 1 hpi (post-treat) (RVFV MP12-GFP [4]) | infection of VSV (relative percent infection) (VSV [5]) | infection of RVFV MP12-GFP (relative percent infection) (RVFV MP12-GFP [6]) | infection of VacV (relative percent infection) (VacV) | other results
O=c1nc(-c2ccc(C(F)(F)F)cc2)[nH]c2c1CSCC2 [XAV939, 2-[4-(trifluoromethyl)phenyl]-1,5,7,8-tetrahydrothiopyrano[4,3-d]pyrimidin-4-one] |  |  |  |  |  |  |  | efficacy in cellular models of cancer survival [1]: demonstrated efficacy
CO/C1=C\C(C)=C\[C@@H](C)[C@@H](O)[C@@H](C)C/C(C)=C/C=C/[C@H](OC)[C@@H]([C@@H](C)[C@@H](O)[C@H](C)[C@@]2(O)C[C@@H](O)[C@H](C)[C@@H](C(C)C)O2)OC1=O [BAF] | blocked |  |  |  |  |  |  | 
Cc1cc(/C=C2\SC(=O)N(c3ccccc3)C2=O)c(C)n1-c1cccnc1 [iCRT-14, (5Z)-5-[(2,5-dimethyl-1-pyridin-3-ylpyrrol-3-yl)methylidene]-3-phenyl-1,3-thiazolidine-2,4-dione] | inhibited | inhibited | little to no effect | significantly inhibit | did not diminish | reduced | did not diminish | RVFV MP12 viral titers by plaque assay (RVFV MP12): significant decrease; wild-type RVFV viral titers by plaque assay (wild-type RVFV): significant decrease
WIF-1 | no effect | dose-dependent reduction | no effect | no effect | unable to reduce infection | unable to reduce infection | unable to reduce infection | 
O=C(Nc1cccc2cccnc12)c1ccc(N2C(=O)[C@@H]3[C@H](C2=O)[C@@H]2C=C[C@H]3C2)cc1 [Endo-IWR-1, 4-[(3aR,4S,7R,7aS)-1,3-dioxo-1,3,3a,4,7,7a-hexahydro-2H-4,7-methanoisoindol-2-yl]-N-(quinolin-8-yl)benzamide] | inhibited | inhibited | little to no effect | significantly inhibit |  |  |  | inhibition at 10 µM (RVFV MP12-GFP [6]): > 50%
COc1ccc(C2(CNC(=O)c3ccc(NC(=O)c4ccco4)cc3)CCOCC2)cc1 [JW55, N-[4-[[4-(4-methoxyphenyl)oxan-4-yl]methylcarbamoyl]phenyl]furan-2-carboxamide] |  |  |  |  |  |  |  | efficacy in cellular models of cancer survival [1]: demonstrated efficacy
O=C1Nc2ccccc2C12OCC1(CO2)COC2(OC1)C(=O)Nc1ccccc12 (stereo not drawn) [JW67, trispiro[3H-indole-3,2′-[1,3]dioxane-5′,5″-[1,3]dioxane-2″,3′″-[3H]indole]-2,2′″(1H,1′″H)-dione] | inhibited | inhibited | little to no effect | significantly inhibit | none of the inhibitors that stabilized the DC affected |  | none of the inhibitors that stabilized the DC affected | RVFV MP12 viral titers by plaque assay (RVFV MP12): significant decrease; LCV infection / viral titers by plaque assay (LCV): significantly reduced; wild-type RVFV viral titers by plaque assay (wild-type RVFV): significant decrease; also recorded: significantly reduced; CEV infection / viral titers by plaque assay (CEV): significantly reduced; inhibition at 10 µM (RVFV MP12-GFP [6]): > 50%
Cc1cc([N+](=O)[O-])ccc1NS(=O)(=O)c1cc(Cl)ccc1Cl [FH535, 2,5-dichloro-N-(2-methyl-4-nitrophenyl)benzenesulfonamide] | inhibited | inhibited | little to no effect | significantly inhibit | did not diminish | reduced | did not diminish | 
CN(C)c1ccc(/C=C/c2c(F)cccc2F)cc1 [Wnt XII, (E)-4-(2,6-difluorostyryl)-N,N-dimethylaniline] | inhibited | inhibited | little to no effect | significantly inhibit | did not diminish | reduced | did not diminish | 
B1 |  |  |  |  |  |  |  | VSV infection after Wnt3A pre-treatment (VSV [7]): remained unchanged; RVFV MP12-GFP viral infection after Wnt3A pre-treatment (RVFV MP12-GFP [8]): significantly enhanced; increase in RVFV MP12-GFP infection (RVFV MP12-GFP [8]): greater than 4.5 fold; wild-type RVFV infection (number of plaques) [9]: enhanced
B2 | no effect | dose-dependent reduction | no effect | no effect | unable to reduce infection | unable to reduce infection | unable to reduce infection | 
